Assay results as given in the NIST ThermoML archive (doi:10.1016/j.jct.2005.03.020).
± gives the expanded uncertainty stated by the source.

Columns and labels:
[1] = xn = mol fraction of the nth substance listed; settings: 298.15 K, 101.33 kPa, Liquid
[2] = excess molar enthalpy (molar enthalpy of mixing); xn = mol fraction of the nth substance listed; settings: 298.15 K, 101.33 kPa, Liquid
[3] = 298.15 K; 101.33 kPa; Liquid
[4] = refractive index (Na D-line) (dimensionless); settings: 298.15 K; 101.33 kPa; Liquid; Standard Abbe refractometry

ClCCCCCCCl [1,6-dichlorohexane] + CCCCC(=O)OCC
Settings | excess molar enthalpy [kcal/mol] | mass density [kg/m3]
[1], x2 = 0.0538 | – | 1053.1 ± 1.1
[1], x2 = 0.1126 | – | 1041.51 ± 1
[1], x2 = 0.1693 | – | 1030.36 ± 1
[1], x2 = 0.2307 | – | 1018.34 ± 0.95
[1], x2 = 0.287 | – | 1007.32 ± 0.9
[1], x2 = 0.3464 | – | 995.69 ± 0.86
[1], x2 = 0.5231 | – | 961.26 ± 0.77
[1], x2 = 0.5825 | – | 949.74 ± 0.75
[1], x2 = 0.701 | – | 926.81 ± 0.71
[1], x2 = 0.7586 | – | 915.69 ± 0.69
[1], x2 = 0.8777 | – | 892.8 ± 0.67
[1], x2 = 0.94 | – | 880.88 ± 0.66
[2], x2 = 0.0607 | -0.00433 ± 0.00043 | –
[2], x2 = 0.127 | -0.00896 ± 0.000502 | –
[2], x2 = 0.1968 | -0.0146 ± 0.000598 | –
[2], x2 = 0.264 | -0.0205 ± 0.000693 | –
[2], x2 = 0.3289 | -0.0265 ± 0.000789 | –
[2], x2 = 0.389 | -0.0331 ± 0.000884 | –
[2], x2 = 0.4445 | -0.0397 ± 0.00098 | –
[2], x2 = 0.4953 | -0.0439 ± 0.00105 | –
[2], x2 = 0.5409 | -0.0448 ± 0.00108 | –
[2], x2 = 0.5672 | -0.045 ± 0.00108 | –
[2], x2 = 0.5813 | -0.0449 ± 0.00108 | –
[2], x2 = 0.6117 | -0.0433 ± 0.00105 | –
[2], x2 = 0.6723 | -0.0395 ± 0.00098 | –
[2], x2 = 0.7364 | -0.0342 ± 0.000908 | –
[2], x2 = 0.8027 | -0.0278 ± 0.000813 | –
[2], x2 = 0.8717 | -0.0198 ± 0.000669 | –
[2], x2 = 0.9373 | -0.0107 ± 0.00055 | –

ClCCCCCCCl [1,6-dichlorohexane] + CCOC(C)=O
Settings | excess molar enthalpy [kcal/mol] | mass density [kg/m3]
[1], x2 = 0.0827 | – | 1053.91 ± 1.1
[1], x2 = 0.164 | – | 1043.7 ± 0.98
[1], x2 = 0.2386 | – | 1033.83 ± 0.9
[1], x2 = 0.3112 | – | 1023.72 ± 0.83
[1], x2 = 0.3783 | – | 1013.89 ± 0.77
[1], x2 = 0.4437 | – | 1003.86 ± 0.71
[1], x2 = 0.5071 | – | 993.65 ± 0.66
[1], x2 = 0.5654 | – | 983.86 ± 0.62
[1], x2 = 0.6221 | – | 973.92 ± 0.58
[1], x2 = 0.6754 | – | 964.14 ± 0.55
[1], x2 = 0.7291 | – | 953.86 ± 0.53
[1], x2 = 0.7774 | – | 944.24 ± 0.51
[1], x2 = 0.824 | – | 934.61 ± 0.5
[1], x2 = 0.8726 | – | 924.1 ± 0.49
[1], x2 = 0.9134 | – | 914.94 ± 0.48
[1], x2 = 0.9552 | – | 905.22 ± 0.48
[2], x2 = 0.0931 | 0.00774 ± 0.00098 | –
[2], x2 = 0.1859 | 0.0127 ± 0.00112 | –
[2], x2 = 0.2737 | 0.0174 ± 0.00129 | –
[2], x2 = 0.3572 | 0.0197 ± 0.00136 | –
[2], x2 = 0.4323 | 0.0181 ± 0.00131 | –
[2], x2 = 0.4967 | 0.0149 ± 0.0012 | –
[2], x2 = 0.5544 | 0.0101 ± 0.00105 | –
[2], x2 = 0.6025 | 0.00755 ± 0.00098 | –
[2], x2 = 0.6355 | 0.0054 ± 0.000908 | –
[2], x2 = 0.7013 | 0.00318 ± 0.000837 | –
[2], x2 = 0.769 | 0.00105 ± 0.000765 | –
[2], x2 = 0.8355 | -0.00227 ± 0.000813 | –
[2], x2 = 0.9006 | -0.00363 ± 0.00086 | –
[2], x2 = 0.9593 | -0.00163 ± 0.000789 | –

CCOC(C)=O [ethyl acetate]
Settings | mass density [kg/m3] | refractive index
[3] | 894.33 ± 0.3 | –
[4] | – | 1.3692 ± 0.0007

CCCC(=O)OCC [ethyl butanoate]
Settings | mass density [kg/m3] | refractive index
[3] | 873.54 ± 1.1 | –
[4] | – | 1.3895 ± 0.0008

CCCC(=O)OCC [ethyl butanoate] + ClCCCl
Settings | excess molar enthalpy [kcal/mol] | mass density [kg/m3]
[1], x1 = 0.0378 | – | 1221.95 ± 0.79
[1], x1 = 0.075 | – | 1199.86 ± 0.75
[1], x1 = 0.1149 | – | 1177.55 ± 0.73
[1], x1 = 0.1568 | – | 1155.49 ± 0.7
[1], x1 = 0.198 | – | 1134.78 ± 0.68
[1], x1 = 0.2425 | – | 1113.63 ± 0.67
[1], x1 = 0.2957 | – | 1089.91 ± 0.66
[1], x1 = 0.3476 | – | 1068.19 ± 0.65
[1], x1 = 0.4019 | – | 1046.72 ± 0.66
[1], x1 = 0.46 | – | 1025.2 ± 0.67
[1], x1 = 0.5234 | – | 1003.08 ± 0.68
[1], x1 = 0.5887 | – | 981.85 ± 0.73
[1], x1 = 0.6583 | – | 960.62 ± 0.78
[1], x1 = 0.7338 | – | 939.07 ± 0.83
[1], x1 = 0.8138 | – | 917.85 ± 0.89
[1], x1 = 0.9027 | – | 895.87 ± 0.95
[2], x1 = 0.0372 | -0.00574 ± 0.000478 | –
[2], x1 = 0.0865 | -0.016 ± 0.000621 | –
[2], x1 = 0.1386 | -0.0291 ± 0.000837 | –
[2], x1 = 0.1921 | -0.0436 ± 0.00105 | –
[2], x1 = 0.2431 | -0.0589 ± 0.00129 | –
[2], x1 = 0.2939 | -0.0737 ± 0.00151 | –
[2], x1 = 0.3419 | -0.0863 ± 0.00172 | –
[2], x1 = 0.388 | -0.0979 ± 0.00189 | –
[2], x1 = 0.4274 | -0.105 ± 0.00201 | –
[2], x1 = 0.4838 | -0.109 ± 0.00206 | –
[2], x1 = 0.5489 | -0.11 ± 0.00208 | –
[2], x1 = 0.5825 | -0.108 ± 0.00203 | –
[2], x1 = 0.6236 | -0.104 ± 0.00198 | –
[2], x1 = 0.7068 | -0.0906 ± 0.00177 | –
[2], x1 = 0.7989 | -0.0682 ± 0.00143 | –
[2], x1 = 0.8971 | -0.0405 ± 0.001 | –
[2], x1 = 0.9325 | -0.0292 ± 0.000837 | –
